Test results published in ChEMBL document CHEMBL1201861, “Genomics of Drug Sensitity in Cancer screening data, Wellcome Trust Sanger Institute”.

Tests used:
Assay in all cases: cells
Format in all cases: functional, cell-based
NCI-H1693 = settings: Homo sapiens;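 note: growth inhibition of the human cell line, read out with a cell viability assay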
Description: SANGER: Inhibition of human NCI-H1693 cell growth in a cell viability assay.

KYSE-70 cell line = settings: Homo sapiens;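 note: cell viability assay read-out, with IC50 expressing suppression of KYSE-70 cell growth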
Description: SANGER: Inhibition of human KYSE-70 cell growth in a cell viability assay.

SNU-449 = settings: Homo sapiens
Description: SANGER: Inhibition of human SNU-449 cell growth in a cell viability assay.

NCI-H1993 = settings: Homo sapiens;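 note: growth inhibition of the cancer cell line, assessed with a cell viability assay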
Description: SANGER: Inhibition of human NCI-H1993 cell growth in a cell viability assay.

CHP-212 = settings: Homo sapiens
Description: SANGER: Inhibition of human CHP-212 cell growth in a cell viability assay.

639-V = settings: Homo sapiens;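 note: growth inhibition of 639-V cells, read out with a cell viability assay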
Description: SANGER: Inhibition of human 639-V cell growth in a cell viability assay.

Panc1005 = settings: Homo sapiens;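 note: growth inhibition of human PANC-10-05 cells, measured by a cell viability assay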
Description: SANGER: Inhibition of human PANC-10-05 cell growth in a cell viability assay.

Daoy = settings: Homo sapiens;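 note: daoy cell growth inhibition, read out as cell viability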
Description: SANGER: Inhibition of human Daoy cell growth in a cell viability assay.

PFSK-1 = settings: Homo sapiens;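 note: cell viability assay measuring how strongly compounds suppress growth of human PFSK-1 cells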
Description: SANGER: Inhibition of human PFSK-1 cell growth in a cell viability assay.

SAS = settings: Homo sapiens;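 note: growth inhibition of SAS cells, read out with a cell viability assay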
Description: SANGER: Inhibition of human SAS cell growth in a cell viability assay.

KU-19-19 = settings: Homo sapiens
Description: SANGER: Inhibition of human KU-19-19 cell growth in a cell viability assay.

ASPC1 = settings: Homo sapiens;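 note: growth inhibition of AsPC-1 cells, read out with a cell viability assay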
Description: SANGER: Inhibition of human AsPC-1 cell growth in a cell viability assay.

BEN = settings: Homo sapiens;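 note: growth inhibition of the BEN cell line, read out with a cell viability assay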
Description: SANGER: Inhibition of human BEN cell growth in a cell viability assay.

UACC-893 = settings: Homo sapiens
Description: SANGER: Inhibition of human UACC-893 cell growth in a cell viability assay.

CP50-MEL-B = settings: Homo sapiens;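 note: growth inhibition of the human cell line, measured with a cell viability read-out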
Description: SANGER: Inhibition of human CP50-MEL-B cell growth in a cell viability assay.

COLO-678 = settings: Homo sapiens
Description: SANGER: Inhibition of human COLO-678 cell growth in a cell viability assay.

VMRC-RCZ = settings: Homo sapiens;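 note: growth inhibition measured with a cell viability assay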
Description: SANGER: Inhibition of human VMRC-RCZ cell growth in a cell viability assay.

NCI-H1573 = settings: Homo sapiens;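 note: growth inhibition of NCI-H1573 cells, read out with a cell viability assay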
Description: SANGER: Inhibition of human NCI-H1573 cell growth in a cell viability assay.

MCF7 = settings: Homo sapiens;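 note: growth inhibition of human MCF7 cells, read out with a cell viability assay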
Description: SANGER: Inhibition of human MCF7 cell growth in a cell viability assay.

BT-20 = settings: Homo sapiens;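 note: cell viability assay measuring suppression of growth in human BT-20 cells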
Description: SANGER: Inhibition of human BT-20 cell growth in a cell viability assay.

SCC-9 = settings: Homo sapiens;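 note: Read-out is a cell viability assay, with values giving inhibition of cell growth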
Description: SANGER: Inhibition of human SCC-9 cell growth in a cell viability assay.

SW1710 = settings: Homo sapiens;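 note: growth inhibition of SW1710 cells, determined with a cell viability assay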
Description: SANGER: Inhibition of human SW1710 cell growth in a cell viability assay.

SW780 = settings: Homo sapiens;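 note: growth inhibition of the cells, read out with a cell viability assay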
Description: SANGER: Inhibition of human SW780 cell growth in a cell viability assay.

SW1417 = settings: Homo sapiens;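 note: growth inhibition of human SW1417 cells, read out with a cell viability assay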
Description: SANGER: Inhibition of human SW1417 cell growth in a cell viability assay.

FaDu = settings: Homo sapiens;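 note: cell viability readout of growth inhibition in FaDu cells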
Description: SANGER: Inhibition of human FADU cell growth in a cell viability assay.

SW756 = settings: Homo sapiens;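 note: growth inhibition of human SW756 cells, read out with a cell viability assay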
Description: SANGER: Inhibition of human SW756 cell growth in a cell viability assay.

769-P = settings: Homo sapiens
Description: SANGER: Inhibition of human 769-P cell growth in a cell viability assay.

HCC1419 = settings: Homo sapiens;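 note: growth inhibition of human HCC1419 cells, read out as cell viability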
Description: SANGER: Inhibition of human HCC1419 cell growth in a cell viability assay.

Calu-3 = settings: Homo sapiens;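 note: growth inhibition of human Calu-3 cells, determined with a cell viability assay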
Description: SANGER: Inhibition of human Calu-3 cell growth in a cell viability assay.

SJRH30 = settings: Homo sapiens;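 note: growth inhibition of human SJRH30 cells, read out with a cell viability assay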
Description: SANGER: Inhibition of human SJRH30 cell growth in a cell viability assay.

NCI-H2452 = settings: Homo sapiens;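 note: growth inhibition of NCI-H2452 cells, read out with a cell viability assay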
Description: SANGER: Inhibition of human NCI-H2452 cell growth in a cell viability assay.

HTC-C3 = settings: Homo sapiens;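 note: inhibition of cell growth, read out with a cell viability assay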
Description: SANGER: Inhibition of human HTC-C3 cell growth in a cell viability assay.

NCI-H2228 = settings: Homo sapiens;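 note: growth inhibition of human NCI-H2228 cells, read out by a cell viability assay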
Description: SANGER: Inhibition of human NCI-H2228 cell growth in a cell viability assay.

HCC1569 = settings: Homo sapiens;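 note: growth inhibition of human HCC1569 cells, read out with a cell viability assay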
Description: SANGER: Inhibition of human HCC1569 cell growth in a cell viability assay.

SW1990 = settings: Homo sapiens;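 note: cell growth inhibition determined with a viability assay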
Description: SANGER: Inhibition of human SW1990 cell growth in a cell viability assay.

EW-22 = settings: Homo sapiens;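 note: growth inhibition of the EW-22 cell line, measured with a cell viability readout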
Description: SANGER: Inhibition of human EW-22 cell growth in a cell viability assay.

MOLT-13 = settings: Homo sapiens;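 note: IC50 for suppression of MOLT-13 cell growth, read out with a cell viability assay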
Description: SANGER: Inhibition of human MOLT-13 cell growth in a cell viability assay.

MDA-MB-231 = settings: Homo sapiens
Description: SANGER: Inhibition of human MDA-MB-231 cell growth in a cell viability assay.

VM-CUB-1 = settings: Homo sapiens;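 note: cell viability assay measuring growth inhibition of the human VM-CUB-1 cell line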
Description: SANGER: Inhibition of human VM-CUB-1 cell growth in a cell viability assay.

KYSE-450 = settings: Homo sapiens;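 note: cell growth inhibition measured by a viability assay in human KYSE-450 cells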
Description: SANGER: Inhibition of human KYSE-450 cell growth in a cell viability assay.

HPAF-II = settings: Homo sapiens;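 note: growth inhibition of HPAF-II cells, read out with a cell viability assay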
Description: SANGER: Inhibition of human HPAF-II cell growth in a cell viability assay.

KYSE-410 = settings: Homo sapiens;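 note: growth inhibition of KYSE-410 cells, measured through a cell viability readout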
Description: SANGER: Inhibition of human KYSE-410 cell growth in a cell viability assay.

CWR22R = settings: Homo sapiens, 22Rv1;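 note: growth inhibition of 22Rv1 cells, read out with a cell viability assay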
Description: SANGER: Inhibition of human 22RV1 cell growth in a cell viability assay.

OE19 = settings: Homo sapiens;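 note: growth inhibition of OE19 cells, measured through a cell viability read-out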
Description: SANGER: Inhibition of human OE19 cell growth in a cell viability assay.

SW13 = settings: Homo sapiens;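 note: IC50 is inhibition of SW13 cell growth, read out with a cell viability assay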
Description: SANGER: Inhibition of human SW13 cell growth in a cell viability assay.

HO-1-N-1 = settings: Homo sapiens;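 note: growth inhibition of human HO-1-N-1 cells, read out with a cell viability assay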
Description: SANGER: Inhibition of human HO-1-N-1 cell growth in a cell viability assay.

8505C = settings: Homo sapiens
Description: SANGER: Inhibition of human 8505C cell growth in a cell viability assay.

TGW = settings: Homo sapiens;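 note: growth inhibition of human TGW cells, read out with a cell viability assay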
Description: SANGER: Inhibition of human TGW cell growth in a cell viability assay.

Cn1cc(/C=C2\C(=O)Nc3cccnc32)c2ccccc21
IC50 (NCI-H1693): > 2 µM | IC50 (KYSE-70 cell line): > 2 µM | IC50 (SNU-449): > 2 µM | IC50 (NCI-H1993): > 2 µM | IC50 (CHP-212): > 2000 nM | IC50 (639-V): > 2000 nM | IC50 (Panc1005): > 2 µM | IC50 (Daoy): > 2000 nM | IC50 (PFSK-1): > 2 µM | IC50 (SAS): > 2000 nM | IC50 (KU-19-19): > 2000 nM | IC50 (ASPC1): > 2000 nM | IC50 (BEN): > 2 µM | IC50 (UACC-893): > 2000 nM | IC50 (CP50-MEL-B): > 2000 nM | IC50 (COLO-678): > 2 µM | IC50 (VMRC-RCZ): > 2000 nM | IC50 (NCI-H1573): > 2000 nM | IC50 (MCF7): > 2000 nM | IC50 (BT-20): > 2000 nM | IC50 (SCC-9): > 2000 nM | IC50 (SW1710): > 2000 nM | IC50 (SW780): > 2000 nM | IC50 (SW1417): > 2000 nM | IC50 (FaDu): > 2000 nM | IC50 (SW756): 440 nM | IC50 (769-P): > 2000 nM | IC50 (HCC1419): > 2 µM | IC50 (Calu-3): > 2 µM | IC50 (SJRH30): > 2000 nM | IC50 (NCI-H2452): > 2000 nM | IC50 (HTC-C3): > 2000 nM | IC50 (NCI-H2228): > 2 µM | IC50 (HCC1569): > 2 µM | IC50 (SW1990): > 2000 nM | IC50 (EW-22): > 2000 nM | IC50 (MOLT-13): > 2000 nM | IC50 (MDA-MB-231): > 2000 nM | IC50 (VM-CUB-1): > 2000 nM | IC50 (KYSE-450): > 2 µM | IC50 (HPAF-II): > 2 µM | IC50 (KYSE-410): > 2000 nM | IC50 (CWR22R): > 2000 nM | IC50 (OE19): > 2 µM | IC50 (SW13): > 2000 nM | IC50 (HO-1-N-1): > 2000 nM | IC50 (8505C): > 2000 nM

C[C@]12O[C@H](C[C@]1(O)CO)n1c3ccccc3c3c4c(c5c6ccccc6n2c5c31)CNC4=O [LESTAURTINIB]
IC50 (NCI-H1693): > 2 µM | IC50 (KYSE-70 cell line): > 2 µM | IC50 (SNU-449): > 2 µM | IC50 (NCI-H1993): > 2 µM | IC50 (CHP-212): 82.2 nM | IC50 (639-V): 689 nM | IC50 (Panc1005): > 2 µM | IC50 (Daoy): 1040 nM | IC50 (PFSK-1): > 2 µM | IC50 (SAS): 958 nM | IC50 (KU-19-19): 1330 nM | IC50 (ASPC1): 1620 nM | IC50 (BEN): > 2 µM | IC50 (UACC-893): > 2000 nM | IC50 (CP50-MEL-B): 632 nM | IC50 (COLO-678): > 2 µM | IC50 (VMRC-RCZ): 82.9 nM | IC50 (NCI-H1573): 686 nM | IC50 (MCF7): > 2000 nM | IC50 (BT-20): 1650 nM | IC50 (SCC-9): 1210 nM | IC50 (SW1710): 128 nM | IC50 (SW780): 327 nM | IC50 (SW1417): 1170 nM | IC50 (FaDu): 648 nM | IC50 (SW756): 630 nM | IC50 (769-P): 1610 nM | IC50 (HCC1419): > 2 µM | IC50 (Calu-3): > 2 µM | IC50 (SJRH30): 1890 nM | IC50 (NCI-H2452): 1540 nM | IC50 (HTC-C3): 186 nM | IC50 (NCI-H2228): > 2 µM | IC50 (HCC1569): > 2 µM | IC50 (SW1990): 1380 nM | IC50 (EW-22): 862 nM | IC50 (MOLT-13): 409 nM | IC50 (MDA-MB-231): 586 nM | IC50 (VM-CUB-1): 651 nM | IC50 (KYSE-450): > 2 µM | IC50 (HPAF-II): > 2 µM | IC50 (KYSE-410): 1410 nM | IC50 (CWR22R): 1400 nM | IC50 (OE19): > 2 µM | IC50 (SW13): 617 nM | IC50 (HO-1-N-1): 298 nM | IC50 (8505C): 302 nM

CC(=O)c1c(C)c2cnc(Nc3ccc(N4CCNCC4)cn3)nc2n(C2CCCC2)c1=O [PALBOCICLIB]
IC50 (NCI-H1693): > 4 µM | IC50 (KYSE-70 cell line): > 4 µM | IC50 (TGW): 1120 nM | IC50 (SNU-449): > 4 µM | IC50 (NCI-H1993): > 4 µM | IC50 (CHP-212): 594 nM | IC50 (639-V): > 4000 nM | IC50 (Panc1005): > 4 µM | IC50 (Daoy): > 4000 nM | IC50 (PFSK-1): > 4 µM | IC50 (SAS): 2200 nM | IC50 (KU-19-19): > 4000 nM | IC50 (ASPC1): 253 nM | IC50 (BEN): > 4 µM | IC50 (CP50-MEL-B): > 4000 nM | IC50 (COLO-678): > 4 µM | IC50 (VMRC-RCZ): 3360 nM | IC50 (NCI-H1573): 2070 nM | IC50 (MCF7): 2710 nM | IC50 (BT-20): > 4000 nM | IC50 (SCC-9): > 4000 nM | IC50 (SW1710): 2070 nM | IC50 (SW780): 1960 nM | IC50 (SW1417): > 4000 nM | IC50 (FaDu): > 4000 nM | IC50 (SW756): > 4000 nM | IC50 (769-P): > 4000 nM | IC50 (HCC1419): > 4 µM | IC50 (Calu-3): > 4 µM | IC50 (SJRH30): > 4000 nM | IC50 (NCI-H2452): > 4000 nM | IC50 (HTC-C3): 433 nM | IC50 (NCI-H2228): > 4 µM | IC50 (HCC1569): > 4 µM | IC50 (SW1990): > 4000 nM | IC50 (EW-22): > 4000 nM | IC50 (MOLT-13): 1010 nM | IC50 (MDA-MB-231): 3820 nM | IC50 (VM-CUB-1): > 4000 nM | IC50 (KYSE-450): > 4 µM | IC50 (HPAF-II): > 4 µM | IC50 (KYSE-410): > 4000 nM | IC50 (CWR22R): 1680 nM | IC50 (OE19): > 4 µM | IC50 (HO-1-N-1): 963 nM | IC50 (8505C): > 4000 nM

C[C@]1(c2nc3c(C(N)=O)cccc3[nH]2)CCCN1 [VELIPARIB]
IC50 (NCI-H1693): > 5 µM | IC50 (KYSE-70 cell line): > 5 µM | IC50 (SNU-449): > 5 µM | IC50 (NCI-H1993): > 5 µM | IC50 (CHP-212): > 5000 nM | IC50 (639-V): > 5000 nM | IC50 (Panc1005): > 5 µM | IC50 (Daoy): > 5000 nM | IC50 (PFSK-1): > 5 µM | IC50 (SAS): > 5000 nM | IC50 (KU-19-19): > 5000 nM | IC50 (ASPC1): > 5000 nM | IC50 (BEN): > 5 µM | IC50 (UACC-893): > 5000 nM | IC50 (CP50-MEL-B): > 5000 nM | IC50 (COLO-678): > 5 µM | IC50 (VMRC-RCZ): > 5000 nM | IC50 (NCI-H1573): > 5000 nM | IC50 (MCF7): > 5000 nM | IC50 (BT-20): > 5000 nM | IC50 (SCC-9): > 5000 nM | IC50 (SW1710): > 5000 nM | IC50 (SW780): > 5000 nM | IC50 (SW1417): > 5000 nM | IC50 (FaDu): > 5000 nM | IC50 (SW756): > 5000 nM | IC50 (769-P): > 5000 nM | IC50 (HCC1419): > 5 µM | IC50 (Calu-3): > 5 µM | IC50 (NCI-H2452): > 5000 nM | IC50 (HTC-C3): > 5000 nM | IC50 (NCI-H2228): > 5 µM | IC50 (HCC1569): > 5 µM | IC50 (SW1990): > 5000 nM | IC50 (EW-22): > 5000 nM | IC50 (MOLT-13): > 5000 nM | IC50 (MDA-MB-231): > 5000 nM | IC50 (VM-CUB-1): > 5000 nM | IC50 (KYSE-450): > 5 µM | IC50 (HPAF-II): > 5 µM | IC50 (KYSE-410): > 5000 nM | IC50 (CWR22R): > 5000 nM | IC50 (OE19): > 5 µM | IC50 (SW13): > 5000 nM | IC50 (HO-1-N-1): > 5000 nM | IC50 (8505C): > 5000 nM
